Measured values taken from patent US11691976B2, “Coelenterazine analogues” (PROMEGA CORPORATION, priority 2018, dated 2023).

Tests used:
NANOLUC® Luciferase = NANOLUC® Luciferase (Oplophorus gracilirostris, UniProt Q9GV45, A31E/A60N/A81I/F95D/I117V/K70R/L54V/L99Q/M102K/N193R/P142E/Q151K/Q38R/Q45L/V71I/Y165I); test: Luminescence assay: substrate titration with purified NANOLUC Luciferase (RLU, signal half-life, Km); format: biochemical; details: 100 μM substrate; initial light output three minutes after substrate addition; relative to furimazine set to 1.0
Description: Each compound to be screened was dissolved in DMSO (5 mM) and then further diluted to 100 μM in NANO-GEO® Luciferase Assay Buffer. A two-fold dilution series was prepared for each substrate by serially diluting 500 μl of the substrate solution with 500 μl of NANO-GLO® Luciferase Assay Buffer. Each diluted substrate titration was then combined in equal volumes with purified NANOLUC® Luciferase diluted into CO2 independent media+10% FBS. Initial light output for each substrate was measured in a GLOMAX®-Multi+ luminometer three minutes after substrate addition and then at five minute intervals as a means to determine signal half-life. Signal half-life was calculated using GraphPad Prism One Phase Decay regression and Km and Vmax were calculated using GraphPad Prism using Michaelis-Menten regression.
The synthesized coelenterazine analogues (compounds of formula (I) and (II)) were evaluated for their suitability as luciferase substrates. NANOLUC® luciferase was employed for the screening because it is a small (19 kDa), stable, and particularly bright enzyme. […] RLU, half-life, and Km values are for furimazine is set to 1.0. […]

[1] = Solubility testing in formulation, UV-Vis of supernatant vs 0.2 micron filtrate; format: physicochemical; details: 8.7 mM in ethanol/propylene glycol/hydroxypropyl-β-cyclodextrin/PEG 400/water (10:10:10:35:35); UV spectra of supernatant vs filtrate
Description: This 5× stock solution was then added to a solution of hydroxypropyl-β-cyclodextrin/water/PEG400 to give a formulation mixture of 8.7 mM in ethanol/propylene glycol/hydroxypropyl-β-cyclodextrin/PEG 400/water (10:10:10:35:35). The mixture was vortexed and centrifuged. Supernatant was sampled and measured in a UV-Vis spectrometer. The mixture was filtered through a 0.2 micron syringe filter and the filtrate was measured and compared to the supernatant.
Shown in FIG. 1 are UV spectra of JRW-1040 in the formulation, comparing supernatant and filtrate. The two UV spectra are superimposed, showing JRW-1040 is fully soluble in the formulation. Shown in FIG. 2 is the same experiment with furimazine. […] This is an example showing improvements in solubility compared to furimazine.

Sequence of NANOLUC® Luciferase (Q9GV45 28-196 with tags or gaps with the stated changes limits assumed): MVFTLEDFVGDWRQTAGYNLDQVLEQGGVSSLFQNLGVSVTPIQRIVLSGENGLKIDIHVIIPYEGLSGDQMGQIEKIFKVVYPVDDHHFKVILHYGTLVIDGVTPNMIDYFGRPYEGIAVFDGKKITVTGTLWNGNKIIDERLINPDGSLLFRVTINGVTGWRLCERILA

| SMILES | RLU (@100 μM) (NANOLUC® Luciferase) | Solubility in the formulation [1] |
| --- | --- | --- |
| O=c1c(Cc2ccco2)nc2c(Cc3ccccc3)[nH]c(-c3ccccc3)cn1-2 [Furimazine, 8-benzyl-2-(furan-2-ylmethyl)-6-phenylimidazo[1,2-a]pyrazin-3(7H)-one, reference compound] | 1 | not fully soluble |
| O=c1c(Cc2cccs2)nc2c(Cc3ccccc3)[nH]c(-c3cccc(O)c3)cn1-2 [JRW-1040, 8-benzyl-6-(3-hydroxyphenyl)-2-(thiophen-2-ylmethyl)imidazo[1,2-a]pyrazin-3(7H)-one] | 0.8 | fully soluble |
| O=c1c(Cc2ccco2)nc2c(Cc3ccccc3)[nH]c(-c3cc(O)ccc3Cl)cn1-2 [JRW-1525, 8-benzyl-6-(2-chloro-5-hydroxyphenyl)-2-(furan-2-ylmethyl)imidazo[1,2-a]pyrazin-3(7H)-one] | 0.4 | – |
| COCc1cccc(Cc2nc3c(Cc4ccccc4)[nH]c(-c4cccc(O)c4)cn-3c2=O)c1 [JRW-0373, 8-benzyl-6-(3-hydroxyphenyl)-2-(3-(methoxymethyl)benzyl)imidazo[1,2-a]pyrazin-3(7H)-one] | 0.27 | – |
| Nc1cccc(-c2cn3c(=O)c(Cc4ccco4)nc-3c(Cc3ccccc3)[nH]2)c1F [JRW-1482, 6-(3-amino-2-fluorophenyl)-8-benzyl-2-(furan-2-ylmethyl)imidazo[1,2-a]pyrazin-3(7H)-one] | 1.7 | – |
| O=c1c(Cc2ccco2)nc2c(Cc3ccccc3)[nH]c(-c3cccc([N+](=O)[O-])c3)cn1-2 [JRW-1424, 8-benzyl-2-(furan-2-ylmethyl)-6-(3-nitrophenyl)imidazo[1,2-a]pyrazin-3(7H)-one] | 0.14 | – |
| Nc1cccc(-c2cn3c(=O)c(Cc4ccco4)nc-3c(Cc3c(F)cccc3F)[nH]2)c1F [JRW-1747, 6-(3-amino-2-fluorophenyl)-8-(2,6-difluorobenzyl)-2-(furan-2-ylmethyl)imidazo[1,2-a]pyrazin-3(7H)-one] | 2.1 | – |
| O=c1c(Cc2ccccc2)nc2c(Cc3ccccc3)[nH]c(-c3cccc(O)c3)cn1-2 [JRW-1043, 2,8-dibenzyl-6-(3-hydroxyphenyl)imidazo[1,2-a]pyrazin-3(7H)-one] | 0.8 | – |
| O=c1c(Cc2cccs2)nc2c(Cc3ccccc3)[nH]c(-c3cccc(O)c3F)cn1-2 [JRW-1624, 8-benzyl-6-(2-fluoro-3-hydroxyphenyl)-2-(thiophen-2-ylmethyl)imidazo[1,2-a]pyrazin-3(7H)-one] | 0.84 | – |
